Measurements as given in PubChem BioAssay (NCI).
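Step 1: Grow cells in 96-well plates. Step 2: Expose to compound for 48 hours at 5 concentrations. Step 3: Interpolate endpoints linearly; if unreached, use highest concentration. GI50 = concentration required for 50% inhibition of growth. TGI is the concentration that stops growth completely.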

Tests used:
Test in all cases: NCI-60 cell line screen, 48 h
[1] = test system: A498 renal
[2] = test system: A549 NSCLC
[3] = test system: HCT-15 colon
[4] = test system: HL-60(TB) leukemia
[5] = test system: M14 melanoma
[6] = test system: OVCAR-8 ovarian
[7] = test system: SN12C renal
[8] = test system: SNB-19 CNS
[9] = test system: SW-620 colon
[10] = test system: RXF 393 renal

`O=C(Nc1ccc(Cl)cc1)C(=O)C1=C(O)c2ccccc2OC1` showed a TGI [1] of over 100 µM, a TGI [2] of over 100 µM and a TGI [3] of over 100 µM. It also gave a TGI [4] of over 100 µM, a TGI [5] of over 100 µM and a TGI [6] of over 100 µM. For the same compound, the TGI [7] was over 100 µM, the TGI [8] was over 100 µM and the TGI [9] was over 100 µM.

Work on `COC(=O)[C@@]12C3=NO[C@]1(C(=O)OC)C(O[Si](C)(C)C(C)(C)C)C1OC(C)(C)OC1[C@@H]2[C@@H](OCc1ccccc1)CC3` (stereo partly drawn) yielded a TGI [1] of over 100 µM, a TGI [2] of over 100 µM and a TGI [3] of over 100 µM. It also gave a TGI [4] of 13.9 µM, a TGI [5] of over 100 µM and a TGI [6] of over 100 µM. For the same compound, the TGI [7] was over 100 µM, the TGI [8] was over 100 µM and the TGI [9] was over 100 µM.

In the case of `COc1ccc2c(c1)CC[C@@H]1C2CC[C@]2(C)C(=O)N(C)C(=O)CC12` (stereo partly drawn), the TGI [1] is reported as over 100 µM, the TGI [2] is reported as over 100 µM and the TGI [4] is reported as over 100 µM. It also gave a TGI [5] of over 100 µM, a TGI [6] of over 100 µM and a TGI [10] of over 100 µM. The TGI [7] was over 100 µM, the TGI [8] was over 100 µM and the TGI [9] was over 100 µM.

For `Cc1nc(N=C(N)N)nc2ccc3ccccc3c12`, the GI50 [1] was 1540 nM, the TGI [1] was 3.23 µM and the GI50 [2] was 1950 nM. It also gave a TGI [2] of 7.24 µM, a GI50 [3] of 2990 nM and a TGI [3] of 14.1 µM. For the same compound, the GI50 [4] was 2250 nM, the TGI [4] was 5.41 µM and the GI50 [5] was 1590 nM. It also gave a TGI [5] of 3.43 µM, a GI50 [6] of 811 nM and a TGI [6] of 3.91 µM. It also gave a GI50 [7] of 490 nM, a TGI [7] of 3.84 µM and a GI50 [8] of 942 nM. It also gave a TGI [8] of 4.89 µM, a GI50 [9] of 897 nM and a TGI [9] of 10.3 µM.

For `Cc1cc(C)c2c(c1C)CN1CN2Cc2c(C)c(C)cc(C)c21`, the TGI [2] was over 100 µM, the TGI [3] was over 100 µM and the TGI [4] was 46.3 µM. For the same compound, the TGI [5] was over 100 µM, the TGI [6] was over 100 µM and the TGI [10] was 93.8 µM. It also gave a TGI [7] of over 100 µM and a TGI [9] of over 100 µM.

`Cc1ccc(NC(=O)CCC(=O)C2CC(=O)CCC2=O)cc1C` (stereo not drawn) showed a TGI [2] of over 100 µM, a TGI [3] of over 100 µM and a TGI [4] of over 100 µM. The TGI [5] was over 100 µM, the TGI [6] was over 100 µM and the TGI [10] was over 100 µM. For the same compound, the TGI [7] was over 100 µM, the TGI [8] was over 100 µM and the TGI [9] was over 100 µM.

`CCOC(=O)C12CN(C34CC5CC(CC(C5)C3)C4)CC(C(=O)OCC)(C1=O)C(c1ccccc1)OC2c1ccccc1` (stereo not drawn) showed a TGI [1] of over 100 µM, a TGI [2] of over 100 µM and a TGI [3] of over 100 µM. It also gave a TGI [4] of over 100 µM, a TGI [5] of over 100 µM and a TGI [6] of over 100 µM. For the same compound, the TGI [10] was over 100 µM, the TGI [8] was over 100 µM and the TGI [9] was over 100 µM.

With `O=C1NCC2=C1CCC1c3ccccc3CCN21` (stereo not drawn) the TGI [1] was over 100 µM, the TGI [2] was over 100 µM and the TGI [3] was over 100 µM. The TGI [4] was over 100 µM, the TGI [6] was over 100 µM and the TGI [10] was over 100 µM. It also gave a TGI [7] of over 100 µM, a TGI [8] of over 100 µM and a TGI [9] of over 100 µM.

`OCCC#Cc1ccccc1C#Cc1ccccc1` was tested, and the GI50 [2] was 36300 nM, the TGI [2] was 83.2 µM and the GI50 [3] was 11600 nM. It also gave a TGI [3] of 24.8 µM, a GI50 [5] of 16000 nM and a TGI [5] of 31.6 µM. For the same compound, the GI50 [6] was 30400 nM, the TGI [6] was 66.9 µM and the GI50 [7] was 12500 nM. It also gave a TGI [7] of 26.8 µM, a GI50 [8] of 28100 nM and a TGI [8] of over 100 µM. It also gave a GI50 [9] of 13400 nM and a TGI [9] of 28.2 µM.

`COc1ccc(C(=O)Nc2ccccc2)cc1[N+](=O)[O-]` showed a TGI [1] of over 100 µM, a TGI [2] of over 100 µM and a TGI [3] of over 100 µM. The TGI [5] was over 100 µM, the TGI [6] was over 100 µM and the TGI [10] was over 100 µM. The TGI [7] was over 100 µM, the TGI [8] was over 100 µM and the TGI [9] was over 100 µM.

With `CC(=O)/C(=C\n1c(=S)[nH]c2ccc([N+](=O)[O-])cc21)C(=O)Nc1ccccc1C` the TGI [1] was over 100 µM, the TGI [2] was over 100 µM and the TGI [3] was over 100 µM. For the same compound, the TGI [4] was over 100 µM, the TGI [5] was over 100 µM and the TGI [6] was over 100 µM. For the same compound, the TGI [10] was over 100 µM, the TGI [7] was over 100 µM and the TGI [9] was over 100 µM.

`Fc1cccc(C=NC23CC4CC(CC(C4)C2)C3)c1` gave a TGI [1] of over 100 µM, a TGI [3] of over 100 µM and a TGI [4] of over 100 µM. It also gave a TGI [5] of over 100 µM, a TGI [6] of over 100 µM and a TGI [10] of over 100 µM. It also gave a TGI [7] of over 100 µM and a TGI [8] of over 100 µM.

With `NC(=NCc1ccccc1)N/N=C\c1ccnc2ccccc12` the TGI [1] was 25.2 µM, the TGI [2] was 36.9 µM and the TGI [3] was 37.4 µM. The TGI [4] was 36.4 µM, the TGI [5] was 17.5 µM and the TGI [6] was 29.9 µM. For the same compound, the TGI [7] was 29.6 µM, the TGI [8] was 36.9 µM and the TGI [9] was 31.2 µM.

`COc1cc(-c2[nH]ncc2CCCC(=O)Nc2ccccc2[N+](=O)[O-])ccc1O` was tested, and the TGI [1] was over 100 µM, the TGI [2] was over 100 µM and the TGI [3] was over 100 µM. The TGI [4] was over 100 µM, the TGI [5] was over 100 µM and the TGI [6] was over 100 µM. It also gave a TGI [7] of over 100 µM and a TGI [9] of over 100 µM.

Compound `Cn1c(=O)c2c(nc3n2C(CCl)CO3)n(C)c1=O` (stereo not drawn) has a TGI [1] of over 100 µM, a TGI [3] of over 100 µM and a TGI [4] of over 100 µM. For the same compound, the TGI [5] was over 100 µM, the TGI [6] was over 100 µM and the TGI [7] was over 100 µM. For the same compound, the TGI [8] was over 100 µM and the TGI [9] was over 100 µM.

Work on `N/C(=N\N=C=C1C(=O)Nc2ccc(F)cc21)NO` yielded a TGI [1] of over 100 µM, a TGI [2] of over 100 µM and a TGI [3] of over 100 µM. The TGI [4] was over 100 µM, the TGI [5] was over 100 µM and the TGI [6] was over 100 µM. The TGI [10] was over 100 µM, the TGI [7] was over 100 µM and the TGI [9] was over 100 µM.

`CC1=C(C(=O)Nc2cc(F)c(F)cc2F)C(c2cccc([N+](=O)[O-])c2)C(C(=O)Nc2ccccc2C(F)(F)F)=C(C)N1` (stereo not drawn) was tested, and the TGI [1] was 45 µM, the TGI [2] was over 100 µM and the TGI [4] was 37.1 µM. For the same compound, the TGI [5] was 55.5 µM, the TGI [6] was 77.7 µM and the TGI [10] was 46.2 µM. The TGI [7] was 56.5 µM, the TGI [8] was over 100 µM and the TGI [9] was 87.1 µM.

`CNS(=O)(=O)NN(C)S(=O)(=O)c1ccc(C)cc1` gave a TGI [1] of over 100 µM, a TGI [2] of over 100 µM and a TGI [4] of over 100 µM. For the same compound, the TGI [5] was over 100 µM, the TGI [6] was over 100 µM and the TGI [10] was over 100 µM. For the same compound, the TGI [7] was over 100 µM, the TGI [8] was over 100 µM and the TGI [9] was over 100 µM.

`CCOC(=O)c1c(-c2ccccc2)[nH]c2ccccc2c1=O` gave a TGI [1] of over 100 µM, a TGI [2] of over 100 µM and a TGI [3] of over 100 µM. It also gave a TGI [4] of over 100 µM, a TGI [5] of over 100 µM and a TGI [6] of over 100 µM. For the same compound, the TGI [10] was over 100 µM, the TGI [8] was over 100 µM and the TGI [9] was over 100 µM.

`C=C(CNCCc1ccc(O)cc1)[C@@H]1CC[C@]2(CO)CC[C@]3(C)[C@H](CC[C@@H]4[C@@]5(C)CCC(NCCO)C(C)(C)[C@@H]5CC[C@]43C)[C@@H]12` (stereo partly drawn) showed a GI50 [1] of 1720 nM, a TGI [1] of 3.72 µM and a GI50 [2] of 1700 nM. It also gave a TGI [2] of 3.12 µM, a GI50 [3] of 1570 nM and a TGI [3] of 3.37 µM. It also gave a GI50 [5] of 1610 nM, a TGI [5] of 3.13 µM and a GI50 [6] of 1790 nM. For the same compound, the TGI [6] was 3.22 µM, the GI50 [10] was 1270 nM and the TGI [10] was 2.63 µM. For the same compound, the GI50 [7] was 1750 nM, the TGI [7] was 3.25 µM and the GI50 [8] was 1630 nM. For the same compound, the TGI [8] was 3.03 µM, the GI50 [9] was 1270 nM and the TGI [9] was 2.68 µM.

`COC(=O)C12C3C=CC(O3)C1C1C=CC2O1` (stereo not drawn) gave a TGI [2] of over 100 µM, a TGI [3] of over 100 µM and a TGI [4] of over 100 µM. For the same compound, the TGI [5] was over 100 µM, the TGI [6] was over 100 µM and the TGI [10] was over 100 µM. The TGI [7] was over 100 µM, the TGI [8] was over 100 µM and the TGI [9] was over 100 µM.
